# Reference: patent publication US5536723A, “S-nitroso derivatives of hydrazinoacetic acids, 1-[(acylthio and (mercapto)-1-oxoalkyl]-1,2,34-Tetrahydroquinoline-2-carboxylic acids and alanyl prolines and isoquinolines” (Brigham & Women's Hospital, priority 1994, dated 1996)
# Peptide text beside a SMILES is read from it.
# Experiments:
# bovine femoral artery = assay: relaxation of isolated bovine femoral artery rings contracted with norepinephrine; details: norepinephrine-contracted; FIG. 2
# Procedure: FIG. 2 depicts a graph showing the effect of S-nitrosocaptopril on the contraction of bovine femoral arteries to norepinephrine.
# (§1) Blood Vessel Preparation. Bovine coronary or femoral arteries were obtained from an abattoir immediately after sacrifice of two- to four-week-old calves. Immediately after removal, the vessel was placed in ice-cold physiologic salt solution (PSS) containing 118.3 mM NaCl, 4.7 mM KCl, 2.5 mM CaCl2, 1.2 mM MgSO4, 1.2 mM KH2 PO4, 25.0 mM NaHCO3, 11.1 mM glucose, and 0.026 mM calcium disodium (ethylenedinitrilo)-tetraacetate. The vessels were then cleaned of adventitial tissue and cut into rings of approximately 5 mm lengths. When called for by the protocol, endothelium was removed from a ring by gently rubbing the luminal surface with a watchmaker's forceps. Vascular rings with intact endothelium were then suspended in organ chambers containing 25 ml of PSS at 37° aerated with 95% O2 -5% CO2. The rings were connected to force transducers (Grass FT03C, Quincy, Mass.) and changes in isometric force recorded continuously (Grass Polygraph Model 79B) over a period of 90 minutes. The optimal length-tension relationship was determined for each ring by observing the response to 10^-6 M norepinephrine after increments in tension of 0.5 gm. The functional integrity of the endothelium was assessed by contracting the vessel with 10^-6 M norepinephrine and then observing the response to 3×10^-7 M acetylcholine chloride.
# Vascular ring segments with intact endothelium were […] contracted with a concentration of norepinephrine inducing a half-maximal response. After a stable contraction had been achieved, the tissue was exposed to increasing concentrations of S-nitrosocaptopril in cumulative half-log increments. […] The apparent IC50 is approximately 1 μM.
# platelets = assay: platelet aggregation in PRP induced by ADP; type: cell-based, human; details: 11 μM ADP
# Procedure: FIG. 7 depicts a graph showing the effect of S-nitrosocaptopril on platelet aggregation. Platelets in PRP were incubated with S-nitrosocaptopril over a range of concentrations for three minutes, after which ADP was added to a final concentration of 11 uM. The maximal rate of aggregation was measured and plotted as a percentage of that observed in the absence of S-nitrosocaptopril. Each point represents the mean ±SEM of five experiments each performed in duplicate.
# Platelets. Volunteers who had not ingested acetylsalicylic acid for at least ten days provided venous blood within one hour of use. […] Platelet counts were determined using a Coulter counter (Model ZM; Coulter Electronics, Hialeah, Fla.) and adjusted with platelet-poor plasma (PPP) to 1.5×10^8 platelets/ml prior to use.
# Platelet Aggregation. Platelet aggregation was monitored using a standard nephelometric technique (Born and Cross, J. Physiol (London) 168:178-195 (1963)) in which PRP was incubated at 37° with a final concentration of 11 μM ADP and stirred at 900 rpm in a Payton dual channel aggregometer (Payton Associates, Inc., Buffalo, N.Y.). Aggregation was quantitated by measuring either the maximal rate of change of light transmittance or the extent of change of light transmittance. […]
# [1] = arterial pressure in the anesthetized rabbit; type: in vivo; details: 1 mM solution infused in an ear vein, 0.02 to 2.2 ml/min
# Procedure: A 1 mM solution of S-nitrosocaptopril was infused in an ear vein of the rabbit at rates from 0.02 to 2.2 ml/min and the phasic and mean arterial pressure recorded in the femoral artery.
# [2] = test system: bovine femoral artery, contraction to angiotensin I; assay: contraction of the bovine femoral artery to angiotensin I
# Procedure: The data are expressed as a percentage of the maximal response to norepinephrine (10^-6 M) and are shown as mean ±SEM in each group (n=7).
# as §1
# [3] = test system: bovine femoral artery, response to bradykinin; assay: response of the bovine femoral artery to bradykinin
# Procedure: as §1
# In the bovine femoral artery contracted with a concentration of norepinephrine inducing a half-maximal response, bradykinin induced a biphasic response.
# [4] = test system: guanylate cyclase in arterial smooth muscle; details: Horowitz 1983; cited from earlier work
# platelet aggregation = details: Loscalzo 1985; cited from earlier work
# [5] = test system: soluble guanylate cyclase; details: Ignarro 1980; cited from earlier work
compound,measurement,setting,value
"C[C@H](CS)C(=O)N1CCCC1C(=O)O (stereo in doubt) [captopril, D-3-mercapto-2-methylpropanoyl-L-proline]",relaxation response (in words),bovine femoral artery,no relaxation response
same,inhibitory effect on platelet aggregation (in words),platelets,no inhibitory effect
same,effect on blood pressure (in words),[1],no effect on blood pressure
same,"inhibition of contractions to angiotensin I, S-nitrosocaptopril versus captopril (in words)",[2],equally inhibited contractions to angiotensin I
same,effect on the response to bradykinin (in words),[3]; 10^-6 M,Neither response to bradykinin was affected
O=C1O[C@H]([C@@H](O)CO)C(O)=C1O [Ascorbate],activation of guanylate cyclase in arterial smooth muscle (in words),[4],totally ineffective
O=N[O-].[Na+] [NaNO2],effect on blood pressure (in words),[1],no effect on blood pressure
CC(=O)N[C@@H](CSN=O)C(=O)O [S-nitroso-N-acetyl cysteine],inhibition of platelet aggregation (in words),platelet aggregation,extremely potent inhibitor of platelet aggregation
NC(CSN=O)C(=O)O (stereo not shown) [S-nitrosothiol of cysteine],activation of soluble guanylate cyclase (in words),[5],capable of activating soluble guanylate cyclase
same,activation of guanylate cyclase in arterial smooth muscle (in words),[4],potent activators of guanylate cyclase
N[C@@H](CCC(=O)N[C@@H](CSN=O)C(=O)NCC(=O)O)C(=O)O [S-nitrosothiol of glutathione],activation of soluble guanylate cyclase (in words),[5],capable of activating soluble guanylate cyclase
same,activation of guanylate cyclase in arterial smooth muscle (in words),[4],potent activators of guanylate cyclase
CC(C)(SN=O)C(N)C(=O)O (stereo not shown) [S-nitrosothiol of penicillamine],activation of soluble guanylate cyclase (in words),[5],capable of activating soluble guanylate cyclase
same,activation of guanylate cyclase in arterial smooth muscle (in words),[4],potent activators of guanylate cyclase
NC(N)=NCCC[C@H](NC(=O)[C@H](Cc1ccccc1)NC(=O)[C@@H]1CCCN1C(=O)[C@H](CO)NC(=O)[C@H](Cc1ccccc1)NC(=O)CNC(=O)[C@@H]1CCCN1C(=O)[C@@H]1CCCN1C(=O)[C@@H](N)CCCN=C(N)N)C(=O)O [bradykinin] (H-RPPGFSPFR-OH),response to bradykinin at higher concentrations (in words),"[3]; norepinephrine-contracted, higher concentrations",increase in tension which was not affected by removal of the endothelium
same,response to bradykinin at lower concentrations (in words),"[3]; norepinephrine-contracted, lower concentrations",relaxations that were abolished by removal of the endothelium
